Several values for one entry are separate records, joined by “and”; a condition that tells them apart may be missing. Equal values may be shown once. Entries after “also recorded” stand apart in the source; their conditions may differ. Read-outs that look alike come from different tables or passages of the source.
Key:
MHV68 in NIH3T3 cells = assay type: cell-based
[1] = system: KSHV lytic reactivation in OTUD4- or USP7-knockdown SLK.iBAC-GFP cells; assay type: cell-based
SLK.iBAC-GFP cells = assay type: cell-based; details: Fig. 1F, 100 μM, 48 h
Procedure: SLK.iBAC-GFP cells were seeded in a 96-well plate at a density of 1 × 10^5 cells/well. The cells were then treated with doxycycline (Dox, 1 μg/ml) and sodium butyrate (0.5 mM) to induce lytic reactivation in the presence of the indicated peptides (100 μM) for 48 h. After treatment and a 30-min equilibration at room temperature, CellTiter-Glo Reagent (Promega, G7570) was added in equal volumes to culture medium. Plates underwent orbital shaking (2 min) for lysis, followed by a 10-min incubation for signal stabilization and luminescence recording (0.25-1 sec integration).

[2] = system: KSHV lytic reactivation in SLK.iBAC-GFP cells; assay type: cell-based
Procedure: (A) Graphical illustration showing the rationale underlying our peptide design. (B) Surface Plasmon Resonance (SPR) analysis assessing the interaction of the USP7-TRAF domain with the designed peptides p2 and p8. (C) SLK.iBAC-GFP cells were induced with doxycycline (Dox, 1 μg/mL) and sodium butyrate (0.5 mM) in the presence of the Tat fusion peptides (100 μM). All the peptides were fused to an N-terminal Tat47-57 peptide ([…]) via a flexible GG linker. The supernatants containing infectious virions were collected 48 h post-induction and used to infect HEK293T cells. KSHV infectious units were calculated based on the percentage of GFP-positive cells determined by flow cytometry. Data are mean ± s.d. of N = 3 independent biological replicates. (D) SLK.iBAC-GFP cells were induced with doxycycline (Dox, 1 μg/mL) and sodium butyrate (0.5 mM) in the presence of increasing amount of p8 (0, 10, 50, 100 μM). KSHV infectious units were determined 48 h post-induction. Data are mean ± s.d. of N = 3 independent biological replicates. […] Data are mean ± s.d. of N = 3 independent biological replicates. […] Cell viability was assessed by measuring ATP levels 48 h post-induction. Data are mean ± s.d. of N = 3 independent biological replicates.
Peptides p1 to p12 (S1A Fig) were synthesized by Sangon Biotech (Shanghai, China) with 95% purity. The Tat-fused peptides in Fig 1C consisted of the corresponding peptides conjugated to the Tat47-57 peptide ([…]) and two glycine linker residues (QYAOBIO, Suzhou, China). The peptides p8-DRI (nssqsasqnvpprrrqrrkkrGy) and p2-DRI (iesndedavepprrrqrrkkrGy) were synthesized using D-amino acids in a retro-reversed sequence with 95% purity (QYAOBIO, Suzhou, China). The peptide p8-m ([…]) was synthesized with 95% purity (QYAOBIO, Suzhou, China). All the peptides were acetylated at the N-terminus and amidated at the C-terminus to mimic the native peptide structure. The peptides were dissolved in PBS to prepare 1 mM stock solutions for in vitro experiments and 5 mg/ml stock solutions for in vivo experiments.
SLK.iBAC-GFP cells were treated with Dox (1 μg/ml) and sodium butyrate (0.5 mM) to induce lytic reactivation in the presence of indicated peptides (100 μM). The supernatants were collected at the specified time points and used to infect HEK293T cells at appropriate dilutions. The infected cells were collected, fixed, and analyzed by flow cytometry 24 h post-infection. FlowJo 10.0 software was used to analyze the data, and KSHV infectious units were quantified based on the percentage of GFP-positive cells.

[3] = system: KSHV viral proteins in BCBL-1-Tet-K-RTA cells; assay type: cell-based; details: 100 μM
RTA in HEK293T cells = assay type: cell-based, KSHV
[4] = system: interaction between OTUD4 and USP7-TRAF; experiment: GST pull-down competition assay, human USP7-TRAF and FLAG-OTUD4; assay type: binding; details: 100 μM, 4 h
[5] = system: interaction between USP7 and MDM2; assay type: cell-based
[6] = system: KSHV lytic gene expression in BCBL-1-Tet-K-RTA cells; assay type: cell-based
[7] = system: KSHV genome replication in BCBL-1 cells; experiment: Relative viral genomic copy number (latency) by qPCR in BCBL-1 cells; assay type: cell-based; details: 100 μM, 48 h
[8] = system: interaction between USP7 and p53; assay type: cell-based
USP7-TRAF domain = molecular target: T1, USP7-TRAF domain (Homo sapiens, UniProt Q93009); experiment: Surface plasmon resonance (SPR) analysis of peptide binding to USP7-TRAF
T1 construct: The TRAF domain of human and murine USP7 (1-208 aa) was subcloned into pGEX-6p-1; GST (N); made in house; host or cells: E. coli BL21 (DE3)

[9] = system: interaction between USP7 and ICP0; assay type: cell-based
[10] = system: interaction between murine USP7-TRAF and murine OTUD4; assay type: binding; details: GST pull-down
[11] = system: KSHV lytic gene expression in SLK.iBAC-GFP cells; assay type: cell-based
[12] = system: KSHV lytic replication in SLK.iBAC-GFP cells transduced with vector control or OTUD4; assay type: cell-based; parameters: KSHV infectious units: unit not given here
[13] = system: KSHV-RTA-WT lytic reactivation; assay type: cell-based
MHV68 in MLF cells = assay type: cell-based
[14] = system: KSHV latent gene transcription in BCBL-1 cells; assay type: cell-based
RTA in iSLK cells = assay type: cell-based, KSHV
[15] = system: KSHV lytic replication in BCBL-1-Tet-K-RTA cells; assay type: cell-based
[16] = system: OTUD4-USP7 interaction in FLAG-OTUD4-expressing SLK.iBAC-GFP cells; assay type: cell-based

T1 sequence (Q93009 1-208): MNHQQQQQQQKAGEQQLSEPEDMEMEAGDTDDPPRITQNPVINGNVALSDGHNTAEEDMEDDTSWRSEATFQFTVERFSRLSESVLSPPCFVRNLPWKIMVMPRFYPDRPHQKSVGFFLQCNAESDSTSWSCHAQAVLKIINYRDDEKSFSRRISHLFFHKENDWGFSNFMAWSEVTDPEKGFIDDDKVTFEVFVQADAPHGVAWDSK

Ac-YGRKKRRQRRRGGVNQSASQSSN-NH2 [p8] was tested, and the “Antiviral activity against MHV68 in NIH3T3 cells (in words)” value (MHV68 in NIH3T3 cells) was “potent antiviral activity against MHV68”, the “ORF9 viral gene expression” value (MHV68 in NIH3T3 cells) was 0.25 and 0.26 and the “ORF25 viral gene expression” value (MHV68 in NIH3T3 cells) was 0.28 and 0.26. The “ORF50 viral gene expression” value (MHV68 in NIH3T3 cells) was 0.24 and 0.22 and 0.27, the “Antiviral effect in OTUD4-deficient or USP7-deficient cells (in words)” value [1] was “abolished” and the “Cytotoxicity (in words)” value (SLK.iBAC-GFP cells) was “minimal cytotoxicity”. The “Cell viability (ATP levels)” value (SLK.iBAC-GFP cells; replicate 1) was 91.6982, the “Cell viability (ATP levels)” value (SLK.iBAC-GFP cells; replicate 2) was 88.8817 and the “Cell viability (ATP levels)” value (SLK.iBAC-GFP cells; replicate 3) was 95.2836. The “KSHV progeny virion production (in words)” value ([2]; S2E Fig, 100 μM) was “significantly reduced KSHV progeny virion production”, the “Inhibition of KSHV lytic reactivation (in words)” value ([2]; Tat-fused peptides, 100 μM or dose series, 48 h post-induction) was “effectively inhibited KSHV lytic reactivation in a dose-dependent manner; also recorded: efficiently suppressed KSHV lytic reactivation” and the “Viral protein levels (in words)” value [3] was “lower levels of viral proteins”. For the same substance, the “Effect on OTUD4-enhanced RTA protein level (in words)” value (RTA in HEK293T cells) was “countered the promoting effect”, the “Disruption of OTUD4/USP7-TRAF interaction (in words)” value [4] was “effectively blocked the interaction between OTUD4 and USP7-TRAF” and the “Effect on USP7-MDM2 interaction (in words)” value [5] was “did not affect the interactions”. The ORF25 gene expression [6] was 0.73 and 0.71, the ORF26 gene expression [6] was 0.38 and 0.45 and 0.4 and the ORF50 gene expression [6] was 0.4 and 0.44 and 0.49. For the same substance, the ORF56 gene expression [6] was 0.63 and 0.69 and 0.67, the ORF57 gene expression [6] was 0.5 and 0.43 and 0.54 and the “Transcription of KSHV lytic genes (in words)” value ([6]; 100 μM) was “decreased transcription of KSHV lytic genes”. The “KSHV genome replication in latency (in words)” value [7] was “did not affect KSHV latent gene transcription or genome replication”, the “Effect on USP7-p53 interaction (in words)” value [8] was “did not affect the interactions” and the “Binding to the USP7-TRAF domain (in words)” value (USP7-TRAF domain) was “specifically bound to the USP7-TRAF domain”. For the same substance, the “Effect on USP7-ICP0 interaction (in words)” value [9] was “did not affect the interactions”, the “Relative inhibitory activity on murine USP7-TRAF/murine OTUD4 interaction, p8 vs p8-m (in words)” value ([10]; 100 μM (S5E Fig)) was “slightly stronger inhibitory activity” and the “Disruption of murine USP7-TRAF/murine OTUD4 interaction (in words)” value ([10]; 100 μM, 4 h (S5E Fig)) was “effectively disrupted the interaction”. For the same substance, the ORF25 gene expression [11] was 0.63 and 0.71 and 0.72, the ORF26 gene expression [11] was 0.64 and 0.65 and 0.71 and the ORF50 gene expression [11] was 0.69 and 0.8. For the same substance, the ORF56 gene expression [11] was 0.84 and 0.81 and 0.83, the ORF57 gene expression [11] was 0.74 and 0.75 and the “Transcription levels of ORF50, ORF56, ORF57, ORF25, ORF26 (in words)” value [11] was “decreased the transcription levels of multiple viral genes”. For the same substance, the “Effect on OTUD4-promoted KSHV lytic replication (in words)” value [12] was “negated by p8”, the KSHV infectious units [12] was 6.7 and 4.8 and 4.4 and 5.5 and 6.5 and 6.3 and the KSHV infectious units [13] was 1.8648 and 1.9224 and 1.6488. The “Antiviral activity against MHV68 in MLF cells (in words)” value (MHV68 in MLF cells) was “potent antiviral activity against MHV68”, the “ORF9 viral gene expression” value (MHV68 in MLF cells) was 0.54 and 0.47 and 0.53 and the “ORF25 viral gene expression” value (MHV68 in MLF cells) was 0.37 and 0.47 and 0.44. For the same substance, the “ORF50 viral gene expression” value (MHV68 in MLF cells) was 0.77 and 0.82 and 0.65, the “ORF71 mRNA expression” value [14] was 1.01 and 1.03 and the “ORF72 mRNA expression” value [14] was 1.27 and 1.18 and 1.09. For the same substance, the “ORF73 mRNA expression” value [14] was 0.87 and 0.86 and 0.96, the “KSHV latent gene transcription (in words)” value ([14]; 100 μM, 48 h) was “did not affect KSHV latent gene transcription” and the “RTA protein level in iSLK cells (in words)” value (RTA in iSLK cells) was “reduced the protein level of RTA”. The “KSHV genome copies in supernatants” value [15] was 1.3 and 1.45 and 1.47, the “Progeny viral genomic copy number (in words)” value ([15]; 100 μM, 48 h) was “reduced progeny viral genomic copy number” and the “Co-localization of OTUD4 and USP7 (in words)” value [16] was “disrupted the co-localization of OTUD4 and USP7”.
